Experimental data as given in US20130172847A1, “Compositions for Providing Vitamin D Year Round and Uses Thereof” (priority 2002, published 2013).

Columns and labels:
[1] = Conversion of 7-DHC and/or T3 to PreD3 in ethanol under winter natural sunlight; type: physicochemical
Excerpt: (§1) In contrast, compositions comprising increasing amounts of T3 produce increasing amounts of PreD3 when exposed to winter sunlight.
(§2) Conversion of 7-Dehydrocholesterol (7-DHC) and/or Tachysterol (T3) to Previtamin D3 (PreD3)

[2] = Conversion of 7-DHC and/or T3 to PreD3 in cream under artificial UVB light (simulates summer sunlight); type: physicochemical; details: for % Yield / PreD3 Formed: Cream (1 g), artificial UVB 2 min
Excerpt: as §1, §2

[3] = Conversion of 7-DHC and/or T3 to PreD3 in cream under winter natural sunlight; type: physicochemical; details: Cream (1 g); natural sunlight 5-60 min; start 7-DHC 1.0 μg, T3 0 μg
Excerpt: as §1, §2

[4] = human skin or organic solvent exposed to 295 nm radiation; cited from earlier work
[5] = cited from earlier work
[6] = Ethanol (1 ml), natural sunlight 90 min, start 7-DHC 0 μg, T3 10 μg

Question: With `CC(C)CCC[C@@H](C)[C@H]1CC[C@H]2C3=CC=C4C[C@@H](O)CC[C@]4(C)[C@H]3CC[C@]12C` [7-DHC, 7-Dehydrocholesterol] as the compound, how does the “% Yield” value ([1]; Ethanol (1 ml), natural sunlight 90 min, start 7-DHC 10 μg, T3 0 μg) read?
Answer: 0%

Question: What about the “conversion to PreD3 when exposed to winter sunlight (in words)” value ([1]; winter natural sunlight, summary of the table) of the same compound?
Answer: inefficiently converted to PreD3

Question: And the “% Yield” value ([2]; start 7-DHC 1.0 μg, T3 0 μg)?
Answer: 26%

Question: And the “PreD3 Formed” value ([2]; start 7-DHC 1.0 μg, T3 0 μg)?
Answer: 0.26 µg

Question: What about the “conversion to PreD3 when exposed to artificial UVB light (in words)” value [2] of the same compound?
Answer: converted to PreD3

Question: And the “% Yield” value [3]?
Answer: 0%

Question: And the “provitamin D3 converted to previtamin D3” value [4]?
Answer: up to 65%

Question: And the “portion of tachysterol among photoproducts” value ([5]; exposed to light in the range of 254 nm)?
Answer: about 75%

Question: What about the “previtamin D3 produced” value ([5]; irradiated at 0° C. with 254 nm light, thereafter (0° C.) with 350 nm light) of the same compound?
Answer: ≤ 83%

Question: Which results are given for `CC1=C(/C=C\C2=CCC[C@]3(C)[C@@H]([C@H](C)CCCC(C)C)CC[C@@H]23)C[C@@H](O)CC1` [T3, Tachysterol]?
Answer: % Yield [1, 6]: 77%; PreD3 Formed [1, 6]: 7.1 µg; % Yield ([2]; start 7-DHC 0 μg, T3 1 μg): 52%; PreD3 Formed ([2]; start 7-DHC 0 μg, T3 1 μg): 0.52 µg; conversion to PreD3 when exposed to artificial UVB light (in words) [2]: converted to PreD3
